US20190111059A1, “COMPOSITIONS AND METHODS FOR TREATING AUTISM SPECTRUM DISORDER” (Marinus Pharmaceuticals, Inc., priority 2017, published 2019)
Where a name gives a salt, the structure may show the parent alone.

Test system: children with non-syndromic autism spectrum disorder (ASD) and language impairment
Test: Randomized double-blind placebo-controlled trial: verbal communication (CELF-preschool-2, CELF-4, PLS-5), primary outcome
Assay type: in vivo, human
Settings: for Verbal communication, effect size (Cohen's d) / Verbal communication, estimated effect vs placebo / Verbal communication, 12 weeks: 2 mg kg^−1 per day; for Verbal communication, effect size (Cohen's d) / Verbal communication, estimated effect vs placebo / % Difference responders (folinic acid vs placebo) / Adjusted odds ratio of response / Number needed to treat / Unadjusted odds ratio of response / % responders / Number of responders (increase in five standardized points, verbal communication): 12 weeks; for Verbal communication, estimated effect vs placebo: mixed-model regression
Description: We sought to determine whether high-dose folinic acid improves verbal communication in children with non-syndromic autism spectrum disorder (ASD) and language impairment in a double-blind placebo control setting. Forty-eight children (mean age 7 years 4 months; 82% male) with ASD and language impairment were randomized to receive 12 weeks of high-dose folinic acid (2 mg kg^-1 per day, maximum 50 mg per day; n=23) or placebo (n=25). Children were subtyped by glutathione and folate receptor-α autoantibody (FRAA) status. […] FRAA status was predictive of response to treatment. […] 2012 to 22 Nov. 2013. Participants who met inclusion and exclusion criteria were screened for language impairment. Preverbal (<25 functional words) children qualified as language impaired. Otherwise, the age-appropriate version of the Clinical Evaluation of Language Fundamentals (CELF) confirmed language impairment. Language impairment was defined as a core standardized score<85 if the preschool version was used or failure on the CELF screener if other versions were used. Those confirmed to have language impairment were randomized to the folinic acid or placebo group and a fasting blood sample was obtained. Randomization was performed using a random number generator with a block size of four. The research pharmacists had exclusive access to the randomization allocation. After breakfast, the participants returned for language, developmental and behavioral assessments. Following these assessments the family was given the 12 weeks of the intervention and was instructed on its administration. Language, developmental and behavioral assessments were repeated after 12 weeks of treatment. The target dose of the intervention (INN: DL folinic acid calcium salt; USAN: leucovorin calcium) was 2 mg kg^-1 per day (maximum 50 mg per day) in two equally divided doses with half of the target dose given during the first 2 weeks. Dye-free, milk-product-free, vegetarian capsules were provided in three strengths (5, 10 and 25 mg) by Lee Silsby Compounding Pharmacy (Cleveland Heights, Ohio, USA). Certificate of analysis was provided for each capsule strength by an independent analytical service (Eagle Analytical Services, Houston, Tex., USA) for each batch of capsules produced. In all cases, potency was at least 99%. Primary outcome. Verbal communication was the primary outcome for several reasons. First, verbal communication improved in preliminary folinic acid treatment studies. Second, verbal communication in children with ASD is closely linked to parental quality of life. Third, the development of language and communication skills is associated with favorable outcomes. Instruments used were the CELF-preschool-2, CELF-4 and the Preschool Language Scale-5 (PLS-5). The standardized summary score of each instrument (mean 100, standard deviation 15) was the primary outcome measure and ranges from 50 to 150 for the PLS-5 and 45 to 155 for the CELF. The ability-appropriate instrument was selected using a structured algorithm. The goal was to select an instrument with an adequate dynamic range for assessing improvement in verbal communication. The assessment started with the most age-appropriate instrument. If the child obtained a score at the floor, the next lower ability instrument was then used. This process was repeated until a score above the floor could be obtained. The score from the final instrument was the primary outcome measure at baseline and at trial end. If the child's age exceeded the maximum age of the instrument's standardization, the maximum standardized age was used. At trial end, all instruments used during the baseline assessment were repeated in the same order to simulate the same baseline assessment experience and to minimize a potential confounder of cognitive fatigue. Studies have shown that early behavioral therapy improves verbal communication by one-standard deviation over 36 weeks. […]

[1] = antibody negative, folinic acid N = 10
[2] = antibody positive, folinic acid N = 13
[3] = glutathione high, folinic acid N = 14
[4] = glutathione low, folinic acid N = 9

For `Nc1nc2c(c(=O)[nH]1)N(C=O)C(CNc1ccc(C(=O)N[C@@H](CCC(=O)O)C(=O)O)cc1)CN2` (mixture of isomers) [Folinic acid, DL folinic acid calcium salt], the “Verbal communication, effect size (Cohen's d)” value (FRAA antibody negative N=17) was 0.30, the “Verbal communication, estimated effect vs placebo” value (shortened to “Verbal communication … vs placebo”) (FRAA antibody negative N=17, calcium salt) was 2.5 standardized score and the “Verbal communication … vs placebo” value (FRAA antibody negative N=17, listed as folinic acid, calcium salt) was “not significantly different”. For the same molecule, the “Verbal communication, effect size (Cohen's d)” value (FRAA antibody positive N=31) was 0.91, the “Verbal communication … vs placebo” value (FRAA antibody positive N=31, calcium salt) was 7.3 standardized score and the “Verbal communication, effect size (Cohen's d)” value (glutathione redox ratio high N=24) was 0.46. For the same molecule, the “Verbal communication … vs placebo” value (glutathione redox ratio high N=24, calcium salt) was 3.0 standardized score, the “Verbal communication … vs placebo” value (glutathione redox ratio high N=24, listed as folinic acid, calcium salt) was “not significantly different” and the “Verbal communication, effect size (Cohen's d)” value (glutathione redox ratio low N=24) was 0.95. For the same molecule, the “Verbal communication … vs placebo” value (glutathione redox ratio low N=24, calcium salt) was 9.1 standardized score, the “Verbal communication … vs placebo” value (glutathione redox ratio low N=24, listed as folinic acid, calcium salt) was “significantly greater” and the “Verbal communication, effect size (Cohen's d)” value (overall N=48) was 0.70. For the same molecule, the “Verbal communication … vs placebo” value (overall N=48, calcium salt) was 5.7 standardized score, the “Verbal communication, 12 weeks” value (FRAA antibody negative, baseline 57.9) was 64.5 standardized score and the “Verbal communication, 12 weeks” value (FRAA antibody positive, baseline 58.1) was 66.1 standardized score. For the same molecule, the “Verbal communication, 12 weeks” value (glutathione redox ratio high, baseline 59.2) was 65.0 standardized score, the “Verbal communication, 12 weeks” value (glutathione redox ratio low, baseline 56.1) was 66.0 standardized score and the “Verbal communication, 12 weeks” value (overall, baseline 58.1) was 65.4 standardized score. The “% Difference responders (folinic acid vs placebo)” value (from here on “% Difference responders”) (antibody negative) was 21%, the “Adjusted odds ratio of response” value (antibody negative) was 3.6 and the “Number needed to treat” value (antibody negative) was 4.7. The “Unadjusted odds ratio of response” value (antibody negative) was 2.5, the “% responders” value [1] was 50% and the “Number of responders (increase in five standardized points, verbal communication)” value [1] was 5. The “% Difference responders” value (antibody positive) was 55% (19%,, the “Adjusted odds ratio of response” value (antibody positive) was 67.4 and the “Number needed to treat” value (antibody positive) was 1.8. For the same molecule, the “Unadjusted odds ratio of response” value (antibody positive) was 11.7, the “% responders” value [2] was 77% and the “Number of responders (increase in five standardized points, verbal communication)” value [2] was 10. For the same molecule, the “% Difference responders” value (glutathione high) was 34% (−4%,, the “Adjusted odds ratio of response” value (glutathione high) was 21.9 and the “Number needed to treat” value (glutathione high) was 2.9. For the same molecule, the “Unadjusted odds ratio of response” value (glutathione high) was 4.2, the “% responders” value [3] was 64% and the “Number of responders (increase in five standardized points, verbal communication)” value [3] was 9. For the same molecule, the “% Difference responders” value (glutathione low) was 47% (10%,, the “Adjusted odds ratio of response” value (glutathione low) was 10.2 and the “Number needed to treat” value (glutathione low) was 2.1. For the same molecule, the “Unadjusted odds ratio of response” value (glutathione low) was 8.0, the “% responders” value [4] was 67% and the “Number of responders (increase in five standardized points, verbal communication)” value [4] was 6. The “Adjusted odds ratio of response” value (overall) was 14.9, the “Number needed to treat” value (overall) was 2.4 and the “Unadjusted odds ratio of response” value (overall) was 5.9. The “% responders” value (overall, folinic acid N = 23) was 65%, the “Number of responders (increase in five standardized points, verbal communication)” value (overall, folinic acid N = 23) was 15 and the “% Difference responders” value (overall, calcium salt) was 41% (13%,. For the same molecule, the “% Difference responders” value (overall, listed as folinic acid, calcium salt) was “significantly more responders”.
